Experimental findings from patent publication US20230295212A1 (ROME Therapeutics, Inc., priority 2022, published 2023) are described below.

Test [1] concerns interferon-stimulated gene (ISG) response. The test can be described thus: In vivo decitabine challenge model in C57BL/6 mice (ISG response). As to conditions: decitabine i.p. 5 mg/kg. More on the design: species or system mouse. Here is the method: Exemplary compounds were tested for ability to alter the interferon-stimulated gene (ISG) response in C57BL/6 mice treated with decitabine. Assay procedures and results are described below. Twenty 9-11 week old C57BL/6 mice were acclimated to the lab for at least 5 days. Compound 23 was prepared in a 0.5% methylcellulose solution for p.o. administration. Decitabine (Sigma-Aldrich) was dissolved in sterile PBS (pH 7.4) and dosed within 30 minutes of preparation of the solution. Doses of both the compound and decitabine were administered once a day, every day from Day 0 to Day 4. On Day 0, mice were split into five groups of five mice and given their first dose of decitabine (i.p., 5 mg/kg) and compound 23. Dosing groups were: Decitabine and compound 23 were administered daily from Day 0 to Day 4. All mice were euthanized 1 hour after the last dose administration on Day 4. Spleens, liver, and terminal colon were collected, along with plasma from each animal. The fold changes in interferon-stimulated gene (ISG) expression was calculated by first normalizing to GAPDH gene using the Delta CT method. The CT (gene of interest)—CT (reference gene) was calculated to generate a delta CT for all samples. The fold change was then calculated by taking the Log2(Delta CT(control)—Delta CT (experimental). The control in this example was the PBS control animal group. The Taqman duplex assay was used to determine levels of GAPDH v. IFIT2. Twenty 9-11 week old C57BL/6 mice were acclimated to the lab for at least 5 days. Compound 2 was prepared in 20% PEG400 in PBS (final pH 4.5) for p.o. administration. Decitabine (Sigma) was dissolved in sterile PBS (pH 7.4) and dosed within 30 minutes of preparation of the solution. Doses of both Compound 2 and decitabine were administered once a day. On Day 0, mice were split into five groups of five mice and given their first dose of decitabine and Compound 2. […] The fold changes in interferon-stimulated gene (ISG, specifically IRF7 and MX1) expression was calculated by first normalizing to GAPDH gene using the Delta CT method. […]

Test [2] relates to human PBMC. In words: Decitabine-stimulated human PBMC assay (IFN-β, cell viability). The format is cell-based. The settings on record: anti-CD3/anti-CD28, decitabine 10 μM, 5 days. The procedure:
EasySep buffer (32 mL, […] Technologies, cat. #20144) was used to dilute 8 mL of LRSC buffy coat (from fresh Leukopak) with gentle mixing. The diluted buffy coat (20 mL) was transferred into each of two SepMate 50 tubes, and the tubes were filled with 15 mL of Lyphoprep ([…], cat. #07851) density gradient. The SepMate tubes were then centrifuged at 1200G for 10 minutes at room temperature with the brake on. The top layer of supernatant was collected in SepMate tubes by quickly pouring it into a new 50 mL conical tube. The PBMCs were washed with EasySep buffer ×2 by centrifuging at 300G for 5 minutes. The cells were resuspended in 30 mL of EasySep and centrifuged at 100G for 5 minutes with the brake off, and the platelets were removed. The cells were then resuspended in 6 mL of 1×RBC lysis buffer (Invitrogen) and incubated at 37° C. for 5 minutes. 25 mL of EasySep buffer was then mixed into the tube and centrifuged at 300G for 5 minutes. The cells were resuspended in 10 mL of EasySep buffer and the cells were then counted with Cellometer (AO/PI). The PBMCs were resuspended in RPMI1640 (ThermoFisher)^+10% FBS (HyClone)^+μ/s at 3×10^6/mL. The PBMCs (100 μL, 300 k PBMCs) were then seeded in a 96-well flat bottom microplate (Corning) that had been precoated with 100 μL of anti-CD3 antibody (10 μg/mL in PBS, Biolegend) or PBS at 4° C., one day before the assay was commenced.
To each well the following solutions were added 1) 100 μL of cells (final cell number per well is 3×10^5 cell/well); 2) 25 μL of anti-CD28 antibody at 6×(5 μg/mL final concentration, Biolegend); 3) 25 μL of decitabine at 6×(10 μM final concentration); and 4) Compound in DMSO was dispensed directly into each well with a d300e digital dispenser (Tecan). The final concentration of DMSO for each well was normalized to 0.3%. The plate was incubated at 37° C. without any agitation for 5 days. Samples were collected 120 hours after incubation to determine IFN-0 and IL-2 levels using a U-PLEX Human IFN-β Assay Sector (5PL) (MSD, cat. #K151VIK-2).
After 5 days, the plate was spun down at 100×G for 5 minutes. Supernatants (100 μL) were collected for interferon β(IFN-β) analysis using the MSD assay noted above, and any residual supernatant was stored at −80° C.

In the case of `Nc1ccn([C@H]2C[C@H](O)[C@](CO)(CCl)O2)c(=O)n1` [Compound 2, 4-amino-1-((2R,4S,5R)-5-(chloromethyl)-4-hydroxy-5-(hydroxymethyl)tetrahydrofuran-2-yl)pyrimidin-2(1H)-one], the “change in interferon-stimulated gene (ISG) response (FIG. 2A)” value in test [1] (compound p.o. 0.6, 2.0, 6.0 mg/kg daily Day 0 to Day 4, IFIT2 v. GAPDH) was “change in ISG response”. Besides, the “change in interferon-stimulated gene (ISG) response (FIGS. 2B and 2C)” value in test [1] (compound p.o. 1, 10, 100 mg/kg daily, kidneys, IRF7 and MX1) is recorded as “change in the ISG response”. The IFN-β level result in test [2] was “inhibition of IFN-0”.
